Laboratory results as given in PubChem BioAssay (NCI).
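These data come from cells grown in 96-well plates and exposed to compound for 48 hours at five concentrations. GI50: concentration for 50% inhibition of growth. The concentration for full growth arrest is given as TGI.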

What was measured:
Assay in all cases: DTP human tumour cell line panel, 48 h
SF-268 CNS = system: SF-268 CNS
PC-3 prostate = system: PC-3 prostate
NCI-H226 lung = system: NCI-H226 lung
KM12 colon = system: KM12 colon
HCC-2998 colon = system: HCC-2998 colon
HT29 colon = system: HT29 colon
MCF7 breast = system: MCF7 breast
UO-31 renal = system: UO-31 renal
SF-295 CNS = system: SF-295 CNS
HCT-116 colon = system: HCT-116 colon

Compound	GI50 (SF-268 CNS)	TGI (SF-268 CNS)	GI50 (PC-3 prostate)	TGI (PC-3 prostate)	GI50 (NCI-H226 lung)	TGI (NCI-H226 lung)	GI50 (KM12 colon)	TGI (KM12 colon)	GI50 (HCC-2998 colon)	TGI (HCC-2998 colon)	GI50 (HT29 colon)	TGI (HT29 colon)	GI50 (MCF7 breast)	TGI (MCF7 breast)	GI50 (UO-31 renal)	TGI (UO-31 renal)	GI50 (SF-295 CNS)	TGI (SF-295 CNS)	GI50 (HCT-116 colon)	TGI (HCT-116 colon)
Nc1ccccc1NC(=O)c1ccc(CSc2nc(N3CCOCC3)c3cccn3n2)cc1	0.732 µM	10.5 µM	0.752 µM	41.4 µM	1.26 µM	3.95 µM	1.14 µM	> 100 µM	2 µM	7.41 µM	0.411 µM	4.54 µM	0.335 µM	> 100 µM	0.412 µM	3.61 µM	1.6 µM	17.2 µM	0.379 µM	> 100 µM
N=c1ccn2c(n1)OC1C(OP(=O)(O)O)C(CO)OC12 (stereo not drawn)		> 100 µM		> 100 µM		> 100 µM		> 100 µM		96.4 µM		> 100 µM		> 100 µM		> 100 µM		> 100 µM		> 100 µM
CCC1CCc2nc3sc(C(=O)Nc4ccccc4F)c(N)c3cc2C1 (stereo not drawn)	16.8 µM	> 100 µM	18.8 µM	> 100 µM	> 100 µM	> 100 µM	0.643 µM	> 100 µM	> 100 µM	> 100 µM	0.915 µM	> 100 µM	0.318 µM	> 100 µM	> 100 µM	> 100 µM	0.669 µM	> 100 µM	1.36 µM	> 100 µM
C[C@H]1CCC/C=C/[C@@H]2C[C@H](O)C[C@H]2[C@H](O)[C@H](S(=O)c2ccc(O)cc2)CC(=O)O1 (stereo partly drawn)		> 100 µM	0.0343 µM		0.0344 µM	0.146 µM	< 0.0146 µM		0.0278 µM	0.0951 µM			0.0323 µM		0.0205 µM	0.519 µM	0.0698 µM	> 100 µM	0.0256 µM	0.0633 µM
CC(=O)O[C@H](C[C@H](C(C)C)N(C)C(=O)[C@@H](NC(=O)[C@H]1CCCCN1C)C(C)C)c1nc(C(=O)N[C@@H](Cc2ccccc2)C[C@H](C)C(=O)O)c(C)s1	< 0.0025 µM	> 25 µM	< 0.0025 µM	> 25 µM			< 0.0025 µM	> 25 µM	< 0.0025 µM	> 25 µM	< 0.0025 µM	> 25 µM	< 0.0025 µM	> 25 µM	0.0161 µM	> 25 µM	< 0.0025 µM	> 25 µM	< 0.0025 µM	> 25 µM
CCCCCCCC1c2cc3[nH]c(cc4nc(cc5[nH]c(cc(n2)[C@@]1(C)CC(=O)N(C)C)c(C)c5CCC(=O)O)C(CCC(=O)O)=C4C)cc3C (stereo partly drawn)		42.9 µM		64 µM				58.5 µM		37.8 µM		39.8 µM		92.3 µM		32.5 µM		37.5 µM		32.5 µM
CC(C)C1C(=O)N2CCCC2C2(O)OC(NC(=O)C3C=C4c5cccc6[nH]cc(c56)CC4N(C)C3)(C(C)C)C(=O)N12 (stereo not drawn)		> 100 µM		87.3 µM				47.7 µM		42.9 µM		37.5 µM		> 100 µM		37 µM		64.4 µM		33.5 µM
CC(C)(Cl)CCC1=C(Cl)C(=O)c2ccccc2C1=O	3.07 µM	11.3 µM	2.27 µM	8.07 µM	3.38 µM	14.5 µM	2.28 µM	5.32 µM			15.6 µM	31.5 µM	1.99 µM	4.05 µM	1.59 µM	3.15 µM	3.22 µM	11 µM	1.59 µM	3.19 µM
O=C(O)C1C2C=CC(O2)C1C(=O)Nc1ccccc1 (stereo not drawn)		> 100 µM		> 100 µM		> 100 µM		> 100 µM				> 100 µM		> 100 µM		> 100 µM		> 100 µM		> 100 µM
O=C1C2CC3C(CC2C(=O)[N]1[Sn]([c]1ccccc1)([c]1ccccc1)[c]1ccccc1)C1(Cl)C(Cl)=C(Cl)C3(Cl)C1(Cl)Cl (stereo not drawn)	0.111 µM	0.286 µM	0.0958 µM	0.315 µM	0.184 µM	0.437 µM	0.13 µM	0.29 µM	0.122 µM	0.281 µM			0.0376 µM	0.154 µM	0.0743 µM	0.212 µM	0.212 µM	0.455 µM	0.0473 µM	0.183 µM
O=c1[nH]cnc2c(C3OC(CO)C(O)C3O)[nH]nc12 (stereo not drawn)				> 100 µM		> 100 µM		> 100 µM		> 100 µM		> 100 µM		> 100 µM		> 100 µM		> 100 µM		> 100 µM
O=S(=O)(NCCNc1cc(-c2cn(-c3ccccc3)nc2-c2cccc(O)c2)ccn1)c1ccc(C(F)(F)F)cc1	3.42 µM	17.3 µM	2.47 µM	10.9 µM	5.36 µM	30.9 µM	2.62 µM	7.98 µM	2.04 µM	4.45 µM	2.04 µM	5.44 µM	2.29 µM	9.78 µM	1.81 µM	4.28 µM			2.29 µM	7.94 µM
CCN1C(=O)N(CC)C2C1NN=c1s/c(=C3\C(=O)N(CCC(C)C)c4ccccc43)c(=O)n12 (stereo not drawn)	2.8 µM	20.5 µM	2.91 µM	> 100 µM	2.52 µM	7.69 µM	0.616 µM	11.4 µM	1.92 µM	4.54 µM			0.412 µM	41.9 µM			1.34 µM	3.86 µM	1.06 µM	2.49 µM
COc1ccc(OC)c(/C=C/c2nnc(Nc3ccc(Cl)cc3)o2)c1	7.6 µM	37.9 µM	13.3 µM	76 µM			17.4 µM	> 100 µM	> 100 µM	> 100 µM	9.44 µM	28.3 µM	20.7 µM	> 100 µM	3.13 µM	12.6 µM	6.15 µM	64.5 µM	2.97 µM	13.1 µM
COc1cc2[nH]c(C(=O)c3cc(OC)c(OC)c(OC)c3)c(N)c2cc1C#CCO	0.957 µM	73.4 µM	0.277 µM	> 100 µM	0.752 µM	> 100 µM	0.334 µM	> 100 µM	0.775 µM	> 100 µM	0.353 µM	> 100 µM	0.0886 µM	> 100 µM	0.476 µM	59 µM			0.298 µM	> 100 µM
Oc1c(Br)cc(Br)cc1CN(Cc1cc(Br)cc(Br)c1O)C1CCCCC1		71.9 µM		50.5 µM		> 100 µM		> 100 µM				64.8 µM		65 µM		> 100 µM		72.7 µM		> 100 µM
